In patent US20040043417A1, “Generation and screening of a dynamic combinatorial library” (priority 2000, published 2004):

Biological target: Concanavalin A (Canavalia ensiformis, UniProt P02866)
Assay: Screening of acyl hydrazone libraries against Concanavalin A, competitive binding assay
Protocol: The library was then made up of one part (40 μL) of each of these solutions, buffered with sodium acetate buffer (50 μL, 1 M, pH 4.0), and diluted with water (510 μL) to a final concentration of 1 mM of each building block, and 50 mM buffer. The resulting libraries were allowed to equilibrate for one week at room temperature to assure complete reaction, and used directly, or following concentration/dilution, in the subsequent screening tests.

NNC(=O)CCCCCCCCC(=O)NN [SED, sebacoyldihydrazide]
contribution of building block to the binding to Concanavalin A: important contributions to the binding
